Results taken from patent publication US7595313B2, “Nitric oxide donating diuretic compounds, compositions and methods of use” (NicOx, S.A., priority 2005, dated 2009).

Legend:
Male Wistar rats = assay: Determination of the diuresis (urine volume over 6 hours after oral dosing); type: in vivo, rat; details: for Urine collected in 6 hours (mL) (30 mg/kg): p.o. 30 mg/kg in 0.5% Methocel
Method: Procedures were approved by the Institutional Animal Care and Use Committee of NitroMed, Inc. Male Wistar rats (180-200 g) were purchased from Charles River Laboratories (Kingston, N.Y. or Raleigh, N.C.) and allowed to acclimate in the facility for a period of at least 72 h. Rats were randomly housed 2-3 per cage in a light-controlled room with a 12 hour light/dark cycle and allowed ad libitum access to food and water.
Prior to the experiment, each rat was placed in a metabolic cage and allowed to acclimate for a period of 24-48 hours with food and water ad libitum. During this acclimation period, rats received mash food instead of pellet food to prevent contamination of the urine samples. All rats were fasted for 18 hours prior to experimentation. In addition, water was removed 90 minutes prior to oral dosing with test compound or vehicle.
The test compounds were prepared immediately prior to dosing in 0.5% Methocel (F4M Premium Hydroxypropyl Methylcellulose, lot # PF12012N12; Dow Chemical Company, USA) and homogenized with a glass/Teflon pestle motorized homogenizer. Gently vortexed test compounds were administered intragastrically (p.o.; 30 mg/kg or 3 mg/kg) at a dose volume of 3 ml per rat using an 18 gauge gavage needle. Urine volume (ml) was monitored and urine was collected for subsequent electrolyte analysis over a 6 hours period. […] Data are expressed as mean ±SEM; n=6 or 7.

[1] = p.o. 3 mg/kg in 0.5% Methocel, male Wistar rats, 6 hours, mean ± SEM, n=6 or 7
[2] = male Wistar rats, 6 hours, mean ± SEM, n=6 or 7

SMILES | melting point | Urine collected in 6 hours (mL) (3 mg/kg) (Male Wistar rats; [1]) | Urine collected in 6 hours (mL) (30 mg/kg) (Male Wistar rats; [2]) | Urine collected in 6 hours (mL) (3 mg/kg) (Male Wistar rats; rat, in vivo, po)
NS(=O)(=O)c1cc2c(cc1Cl)NC(CCCCCO)NS2(=O)=O (centres unmarked) [Example 24c, 2H-1,2,4-Benzothiadiazine-7-sulfonamide, 6-chloro-3,4-dihydro-3-(5-hydroxypentyl)-, 1,1-dioxide] | 190 °C | 8.6 ± 0.4 | 7.2 ± 0.7 | 
NS(=O)(=O)c1cc2c(cc1Cl)NC(CCCCO)NS2(=O)=O (centres unmarked) [Example 26, 2H-1,2,4-Benzothiadiazine-7-sulfonamide, 6-chloro-3,4-dihydro-3-(4-hydroxybutyl)-, 1,1-dioxide] | 202 to 211 °C |  | 6.0 ± 0.4 | 
NS(=O)(=O)c1cc2c(cc1Cl)NCN(CCO)S2(=O)=O [Example 32b, 2H-1,2,4-Benzothiadiazine-7-sulfonamide, 6-chloro-3,4-dihydro-2-(2-hydroxyethyl)-, 1,1-dioxide] | 226 to 228 °C | 5.1 ± 0.2 |  | 
NS(=O)(=O)c1cc2c(cc1Cl)NCN(Cc1cccc(CO[N+](=O)[O-])c1)S2(=O)=O [Example 33, 2H-1,2,4-Benzothiadiazine-7-sulfonamide, 6-chloro-3,4-dihydro-2-[[3-[(nitrooxy)methyl]phenyl]methyl]-, 1,1-dioxide] | 136 to 139 °C (dec.) | 3.0 ± 0.4 |  | 
NS(=O)(=O)c1cc2c(cc1Cl)NCN(CC(=O)NCCCO[N+](=O)[O-])S2(=O)=O [Example 34, 2H-1,2,4-Benzothiadiazine-2-acetamide, 7-(aminosulfonyl)-6-chloro-3,4-dihydro-N-[3-(nitrooxy)propyl]-, 1,1-dioxide] | 138 to 141 °C | 2.8 ± 0.3 |  | 
Cc1c(CN2CNc3cc(Cl)c(S(N)(=O)=O)cc3S2(=O)=O)no[n+]1[O-] [Example 37c, 2H-1,2,4-Benzothiadiazine-7-sulfonamide, 6-chloro-3,4-dihydro-2-[(4-methyl-5-oxido-1,2,5-oxadiazol-3-yl)methyl]-, 1,1-dioxide] | 235 to 237 °C | 2.1 ± 0.6 |  | 
CN(CCO[N+](=O)[O-])C(=O)CN1CNc2cc(Cl)c(S(N)(=O)=O)cc2S1(=O)=O [Example 38, 2H-1,2,4-Benzothiadiazine-2-acetamide, 7-(aminosulfonyl)-6-chloro-3,4-dihydro-N-methyl-N-[2-(nitrooxy)ethyl]-, 1,1-dioxide] | 160 to 165 °C | 4.5 ± 0.6 |  | 
NS(=O)(=O)c1cc2c(cc1Cl)NCN(CCCCO)S2(=O)=O [Example 41, 2H-1,2,4-Benzothiadiazine-7-sulfonamide, 6-chloro-3,4-dihydro-2-(4-hydroxybutyl)-, 1,1-dioxide] | 96 to 99 °C | 5.5 ± 0.6 |  | 
NS(=O)(=O)c1cc2c(cc1Cl)NCN(CCCC(CO[N+](=O)[O-])O[N+](=O)[O-])S2(=O)=O (centres unmarked) [Example 43b, 2H-1,2,4-Benzothiadiazine-7-sulfonamide, 2-[4,5-bis(nitrooxy)pentyl]-6-chloro-3,4-dihydro-, 1,1-dioxide] | 49 to 53 °C |  |  | 3.0 ± 0.6
CN(CCO[N+](=O)[O-])CC1Nc2cc(Cl)c(S(N)(=O)=O)cc2S(=O)(=O)N1 (centres unmarked) [Example 45, 2H-1,2,4-Benzothiadiazine-7-sulfonamide, 6-chloro-3,4-dihydro-3-[[methyl[2-(nitrooxy)ethyl]amino]methyl]-, 1,1-dioxide] | 175 to 180 °C | 4.8 ± 1.3 |  | 
NS(=O)(=O)c1cc2c(cc1Cl)NC(CCCCCCO[N+](=O)[O-])NS2(=O)=O (centres unmarked) [Example 47c, 2H-1,2,4-Benzothiadiazine-7-sulfonamide, 6-chloro-3,4-dihydro-3-[6-(nitrooxy)hexyl]-, 1,1-dioxide] | 161 °C | 8.3 ± 0.6 |  | 
